This is an account of results in patent US5756501A, “Saturated and unsaturated pyridazino[4,5-B] indolizines useful as antidementia agents” (American Home Products Corporation, priority 1996, dated 1998).

The target of data set [1] is T1, muscarinic M1 receptors (Rattus norvegicus, UniProt P08482).
T1 construct: The cortex of rat brains obtained from male Sprague-Dawley rats; from tissue; host or cells: rat brain cortex homogenate (male Sprague-Dawley)
T1 sequence (P08482 1-460): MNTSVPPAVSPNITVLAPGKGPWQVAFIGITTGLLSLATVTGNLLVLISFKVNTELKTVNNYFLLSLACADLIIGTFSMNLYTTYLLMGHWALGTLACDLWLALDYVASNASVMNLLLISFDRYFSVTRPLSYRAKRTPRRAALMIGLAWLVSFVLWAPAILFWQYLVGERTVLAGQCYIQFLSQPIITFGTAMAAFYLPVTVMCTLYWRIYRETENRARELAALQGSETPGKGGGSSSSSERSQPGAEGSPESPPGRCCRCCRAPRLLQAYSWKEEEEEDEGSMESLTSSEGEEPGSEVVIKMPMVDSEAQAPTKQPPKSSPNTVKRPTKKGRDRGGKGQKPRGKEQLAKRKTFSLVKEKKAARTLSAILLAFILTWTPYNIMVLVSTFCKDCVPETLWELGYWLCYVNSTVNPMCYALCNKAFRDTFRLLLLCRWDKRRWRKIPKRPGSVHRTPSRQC
Kind of data set: Tritiated pirenzepine ([^3 H]PZ) binding inhibition, rat brain cortex (M1 binding). As to conditions: [^3 H]PZ 0.5 nM, read-out: M1 Binding % Inhib. of [^3 H] Pz @ 10 μM. Here is the method:
The cortex of rat brains obtained from male Sprague-Dawley rats (300 g) are homogenized using a hand-held teflon-coated pestle in 20 volumes of 0.32M sucrose. After centrifugation (747×g for 10 min at 4° C.), the resultant supernatant is decanted and recentrifuged (18677×g for 20 min at 4° C.). The resultant pellet is resuspended in the original volume of 0.32M sucrose and frozen. After thawing, the suspension is diluted (1:1 v/v) with 10 mM Na2 HPO4 /KH2 PO4 buffer (pH=7.4). [^3 H]PZ (0.5 nM, 0.04 μCi) is then incubated in multiple tubes with a 100 μl sample of the tissue suspension and 10 μl of a test compound solution (10 μM in water or ethanol) or vehicle (for control) in a sufficient quantity of the above phosphate buffer to give a total volume of 1 ml. One half of the tubes also contain 2 μM atropine sulfate which binds non-specifically with muscarinic receptors and provides for correcting the data for binding with other muscarinic receptors which may be present. After 60 minutes of incubation as 25° C. in the dark, the binding is terminated by vacuum filtration onto Whatman GF/B filters (pre-soaded for 60 minutes in 0.1% (w/v) polyethylenimine to reduce non-specific binding). After three washes with the phosphate buffer (4° C., 3 ml/wash) the vacuum is allowed to continue for two minutes before the filter-trapped radioactivity is assayed by liquid scintillation spectroscopy. Specific [^3 H]PZ binding is defined as total binding minus binding in the presence of 2 μM atropine sulfate. Data are pesented in Table I below as the percent inhibition ([control-test]/control×100%) of [^3 H]PZ binding by the test or reference compound.

Data set [2] has as its target T2, M1 acetylcholine receptors (Homo sapiens, UniProt P11229).
T2 sequence (P11229 1-460): T1 sequence (P08482 1-460) with V5A, S254T, S309P, K320R, G337A, V413I
Nature of the data set: cell-based. To be noted: CHO, 1 h; read-out: PI Turnover % above baseline.

For data set [3] the following is noted: quaternary ammonium compounds; cited from earlier work.
Data set [4] deals with Human m1 receptors (Homo sapiens, UniProt P11229). Kind of data set: biochemical. The data set is classed as binding.
Sequence of Human m1 receptors (P11229 whole entry): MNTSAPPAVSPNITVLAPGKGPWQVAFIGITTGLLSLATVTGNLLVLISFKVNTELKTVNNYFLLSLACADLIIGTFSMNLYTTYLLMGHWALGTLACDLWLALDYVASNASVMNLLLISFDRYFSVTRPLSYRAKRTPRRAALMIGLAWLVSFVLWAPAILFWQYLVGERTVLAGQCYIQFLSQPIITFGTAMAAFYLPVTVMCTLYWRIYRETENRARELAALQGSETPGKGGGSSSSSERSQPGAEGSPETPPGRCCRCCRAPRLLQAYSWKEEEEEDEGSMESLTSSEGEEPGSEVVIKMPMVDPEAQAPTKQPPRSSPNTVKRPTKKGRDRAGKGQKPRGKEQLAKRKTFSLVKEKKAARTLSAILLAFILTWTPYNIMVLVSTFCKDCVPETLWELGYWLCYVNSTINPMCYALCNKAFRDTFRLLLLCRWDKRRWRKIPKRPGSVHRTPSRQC
Data set [5] deals with Alzheimer's Disease. As to conditions: cited from earlier work; for improvement in memory: patients with mild to moderate Alzheimer's Disease.
The conditions of data set [6]: in vivo; cited from earlier work.
Data set [7] has as its system m1 receptors. As to conditions: cited from earlier work.
For data set [8], the system named is muscarinic M2 receptors. Kind of data set: biochemical. Type of data set: binding, rat. To be noted: selectivity M1 versus M2.
Data set [9] deals with muscarinic M2 receptors (Rattus norvegicus, UniProt P10980). Kind of data set: biochemical. Type of data set: binding.
Sequence of muscarinic M2 receptors (Rattus norvegicus, UniProt P10980) (P10980 whole entry): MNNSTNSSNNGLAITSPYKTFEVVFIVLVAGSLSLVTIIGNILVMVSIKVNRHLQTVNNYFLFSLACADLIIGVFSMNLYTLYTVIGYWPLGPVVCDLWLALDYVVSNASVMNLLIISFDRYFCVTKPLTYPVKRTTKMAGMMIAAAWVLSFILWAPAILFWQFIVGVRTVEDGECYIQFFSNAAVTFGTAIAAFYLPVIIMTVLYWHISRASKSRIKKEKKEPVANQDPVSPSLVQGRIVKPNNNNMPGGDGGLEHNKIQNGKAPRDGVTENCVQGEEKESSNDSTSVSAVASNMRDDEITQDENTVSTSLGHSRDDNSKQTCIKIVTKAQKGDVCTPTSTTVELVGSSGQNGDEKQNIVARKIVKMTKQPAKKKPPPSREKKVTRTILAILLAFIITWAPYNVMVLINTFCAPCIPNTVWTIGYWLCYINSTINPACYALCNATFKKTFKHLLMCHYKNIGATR
For data set [10], the target named is T1, muscarinic M1 receptors. Nature of the data set: Tritiated pirenzepine ([^3 H]PZ) binding inhibition, rat brain cortex (M1 binding).

Molecules are shown by their SMILES. Positions count from the first letter of the chain named.

In the case of `CCN(CC)CCCNc1nnc(COC)c2c1cc1n2CCCC1` [Example 13, N,N-Diethyl-N'-[6,7,8,9-tetrahydro-4-(methoxymethyl)-pyridazino[4,5-b]indolizin-1-yl]-1.3-propanediamine], the inhibition at 10 µM in [1] was found to be 109%.

As to `COCc1nnc(NCCCCN2CC3CCC(CC3)C2)c2cc3n(c12)CCCC3` [Example 14, N-[4-(3-Azabicyclo[3.2.2]non-3-yl)butyl]-6,7,8,9-tetrahydro-4-(methoxymethyl)-pyridazino[4,5-b]indolizin-1-amine], the Emax in data set [2] amounted to 73%. In data set [1], the inhibition at 10 µM turned out to be 101%.

For `CCN(CC)CCCNc1nnc(C)c2c1cc1n2CCCC1` [Example 8, N,N-Diethyl-N'-[6,7,8,9-tetrahydro-4-(methyl)-pyridazino[4,5-b]indolizin-1-yl]-1.3-propanediamine], the inhibition at 10 µM in data set [1] is 98%.

Turning to `C[N+](C)(C)CCOC(N)=O` [carbachol], in [3], the “ability to cross the blood brain barrier” value is given as “not able to cross the blood brain barrier”.

For orientation: Ki means the equilibrium dissociation constant of an inhibitor or competing ligand from its target. Turning to `FC(F)(F)c1nnc(NCCCCN2CC3CCC(CC3)C2)c2cc3n(c12)CCCC3` [Example 12, N-[4-(3-Azabicyclo[3.2.2]non-3-yl)butyl]-6,7,8,9-tetrahydro-4-(trifluoromethyl)-pyridazino[4,5-b]indolizin-1-amine], the Ki in data set [4] stood at 206 nM.

`FC(F)(F)c1nnc(NCCCCN2CC3CCC(CC3)C2)c2cc3ccccn3c12` [Example 1, N-[4-(3-Azabicyclo[3.2.2]non-3-yl)butyl]-4-(trifluoromethyl)pyridazino[4,5b]indolizine-1-amine]: the affinity in [4], expressed as Ki, was 240 nM.

For `Cc1nnc(NCCN2CC3CCC(CC3)C2)c2cc3n(c12)CCCC3` [Example 9], the Ki in data set [4] turned out to be 80 nM. Compared with the last molecule, the Ki is about 3-fold lower.

`Cc1nnc(NCCCN2CC3CCC(CC3)C2)c2cc3n(c12)CCCC3` [Example 10, N-[3-(3-Azabicyclo[3.2.2]non-3-yl)propyl]-6,7,8,9-tetrahydro-4-(methyl)pyridazino[4,5-b]indolizin-1-amine] displayed a Ki in [4] of 9 nM. Against the preceding molecule, the Ki is about 8.9-fold lower.

For `Nc1c2c(nc3ccccc13)CCCC2` [tacrine], in data set [5] (higher doses), the adverse side effects entry is “adverse side effects especially at the higher doses”. Further, in data set [5], the improvement in memory entry is recorded as “improvement in memory can be shown in patients with mild to moderate Alzheimer's Disease”.

As to `CCN(CC)CCCNc1nnc(COC)c2c1cc1ccccn12` [Example 3, N,N-Diethyl-N'-[4-(methoxymethyl)pyridazino[4,5-b]indolizin-1-yl]-1.3-propanediamine], the inhibition at 10 µM in [1] was determined as 98.4%.

As to `FC(F)(F)c1nnc(NCCCN2CC3CCC(CC3)C2)c2cc3ccccn3c12` [Example 2], the inhibition constant Ki in [4] amounted to 140 nM.

Regarding `c1ccc(COCc2nnc(NCCCCN3CCOCC3)c3cc4n(c23)CCCC4)cc1` [Example 15, 6,7,8,9,-Tetrahydro-N-[4-(4-morpholinyl)butyl]-4-[(phenylmethoxy)methyl]-pyradazino[4,5-b]indolizin-1-amine], the inhibition at 10 µM in data set [1] turned out to be 100%.

For `COCc1nnc(NCCCN2CC3CCC(CC3)C2)c2cc3ccccn3c12` [Example 4, N-[3-(3-Azabicyclo[3.2.2]non-3-yl)propyl]-4-(methoxymethyl)pyridazino[4.5-b]indolizin-1-amine], the inhibition at 10 µM in data set [1] turned out to be 100%.

For `COCc1nnc(NCCCCN2CC3CCC(CC3)C2)c2cc3ccccn3c12` [Example 5, N-[4-(3-Azabicyclo[3.2.2]non-3-yl)butyl]-4-(methoxymethyl)pyridazino[4.5-b]indolizin-1-amine], the inhibition at 10 µM in data set [1] stood at 100%.

Regarding `COC(=O)C1=CCCN(C)C1` [arecoline], in data set [6], the half-life entry is on record as “short half-life”. Moreover, the improvement in memory result in data set [5] is “memory improvement in patients with mild to moderate Alzheimer's Disease”.

Turning to `c1ccc(COCc2nnc(NCCN3CCN(c4ncccn4)CC3)c3cc4ccccn4c23)cc1` [Example 6, 4-[(Phenylmethoxy)methyl]-N-[2-[4-(2-pyrimidinyl)-1-piperazinyl]ethyl]pyridazino[4,5-b]indolizin-1-amine], in data set [1], the inhibition at 10 µM turned out to be 98.3%.

For `C[C@@H]1O[C@H](C[N+](C)(C)C)C[C@H]1O` [muscarine], the “ability to cross the blood brain barrier” value in [3] is recorded as “not able to cross the blood brain barrier”. The “activation of m1 receptors” value in [7] was “able to fully activate m1 receptors”.

For `Cc1nnc(NCCCCN2CC3CCC(CC3)C2)c2cc3n(c12)CCCC3` [Example 11, N-[4-(3-Azabicyclo[3.2.2]non-3-yl)butyl]-6,7,8,9-tetrahydro-4-methylpyridazino[4,5-b]indolizin-1-amine], the Emax in data set [2] is 102%. In addition, in data set [8], the “M2/M1 Ki ratio” value is 10. In addition, the Ki turned out to be 13.4 nM in data set [9] and 1.34 nM in data set [10] (Table II, rat brain M1). Also, the inhibition at 1 µM in data set [10] (1 μM, rat cortex, [^3 H]PZ 0.5 nM, read-out: M1 Binding % Inhib. of [^3 H] Pz @ 1 μM) was 101%.

As to `CCN(CC)CCCNCc1nnc(NCCCN(CC)CC)c2cc3ccccn3c12` [Example 7, N,N-Diethyl-N'-[4-[[[3-(diethylamino)propyl]amino]methyl]-pyridazino[4.5-b]indolizin-1-yl]-1,3-propanediamine], the inhibition at 10 µM in data set [1] was found to be 99.3%.
